# From patent publication US20230416225A1, “DIAMINOPYRIMIDINE CARBOXAMIDE INHIBITORS OF HPK1” (MERCK SHARP & DOHME LLC, priority 2020, published 2023)
# Molecular target: T1, Human HPK1, catalytic domain (Homo sapiens, UniProt Q92918)
# T1 construct: purchased Carna
# T1 sequence (Q92918 1-346): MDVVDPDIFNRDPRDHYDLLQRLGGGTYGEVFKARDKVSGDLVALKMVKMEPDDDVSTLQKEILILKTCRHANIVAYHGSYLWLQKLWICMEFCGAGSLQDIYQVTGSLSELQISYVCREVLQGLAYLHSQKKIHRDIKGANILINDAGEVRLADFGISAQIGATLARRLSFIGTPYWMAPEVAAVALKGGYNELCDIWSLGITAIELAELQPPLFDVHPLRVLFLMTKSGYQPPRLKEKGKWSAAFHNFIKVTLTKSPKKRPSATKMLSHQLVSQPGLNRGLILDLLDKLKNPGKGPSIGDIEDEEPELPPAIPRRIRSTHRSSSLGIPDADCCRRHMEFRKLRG
# Assay: HPK1-SLP76 TR-FRET assay
# Assay type: biochemical
# Conditions: 75 pM HPK1, 10 uM ATP, 10 nM SLP76, 30 min compound pre-incubation
row,Compound,IC50 [nM]
1,Cc1cccc(F)c1Nc1nc(Nc2cc3c(cc2F)CCN(C)C3)ncc1C(N)=O [Example 4-6],0.11
2,"COc1cc2c(cc1Nc1ncc(C(N)=O)c(Nc3ccccc3N3C(=O)OC[C@@H]3C)n1)CN(C)CC2 [Example 7-2, 2-[(6-methoxy-2-methyl-1,2,3,4-tetrahydroisoquinolin-7-yl)amino]-4-({2-[(4S)-4-methyl-2-oxo-1,3-oxazolidin-3-yl]phenyl}amino)pyrimidine-5-carboxamide]",0.15
3,"COc1cc2c(cc1Nc1ncc(C(N)=O)c(Nc3cccc(C#N)c3F)n1)CN(C)CC2 [Example 7-30, 4-[(3-cyano-2-fluorophenyl)amino]-2-[(6-methoxy-2-methyl-1,2,3,4-tetrahydroisoquinolin-7-yl)amino]pyrimidine-5-carboxamide]",2.38
4,"COc1cc2c(cc1Nc1ncc(C(N)=O)c(Nc3c(Cl)ccc(C)c3F)n1)CN(C)CC2 [Example 4-20, 4-[(6-chloro-2-fluoro-3-methylphenyl)amino]-2-[(6-methoxy-2-methyl-1,2,3,4-tetrahydroisoquinolin-7-yl)amino]pyrimidine-5-carboxamide]",0.21
5,"CS(=O)(=O)Cc1ccc(Nc2ncc(C(N)=O)c(Nc3ccccc3CO)n2)cc1 [Example 7-68, 4-{[2-(hydroxymethyl)phenyl]amino}-2-({4-[(methylsulfonyl)methyl]phenyl}amino)pyrimidine-5-carboxamide]",14
6,"COc1cc2c(cc1Nc1ncc(C(N)=O)c(Nc3cccc(C)c3)n1)CN(C)CC2 [Example 7-22, 2-[(6-methoxy-2-methyl-1,2,3,4-tetrahydroisoquinolin-7-yl)amino]-4-[(3-methylphenyl)amino]pyrimidine-5-carboxamide]",0.81
7,"NC(=O)c1cnc(Nc2cccc3c2OCC3)nc1Nc1ccccc1Br [Example 7-96, 4-[(2-bromophenyl)amino]-2-[(2,3-dihydro-1-benzofuran-7-yl)amino]pyrimidine-5-carboxamide]",713
8,"COc1cc2c(cc1Nc1ncc(C(N)=O)c(NC3CCc4c(F)ccc(F)c43)n1)CN(C)CC2 (stereo not shown) [Example 26-70, 4-[(4,7-difluoro-2,3-dihydro-1H-inden-1-yl)amino]-2-[(6-methoxy-2-methyl-1,2,3,4-tetrahydroisoquinolin-7-yl)amino]pyrimidine-5-carboxamide]",2.71
9,"COc1cc2c(cc1Nc1ncc(C(N)=O)c(Nc3cc(C)nn3Cc3ccccc3)n1)CN(C)CC2 [Example 7-91, 4-((1-benzyl-3-methyl-1H-pyrazol-5-yl)amino)-2-((6-methoxy-2-methyl-1,2,3,4-tetrahydroisoquinolin-7-yl)amino)pyrimidine-5-carboxamide]",38.6
10,"COc1cc2c(cc1Nc1ncc(C(N)=O)c(NCc3nccs3)n1)CN(C)CC2 [Example 26-60, 2-[(6-methoxy-2-methyl-1,2,3,4-tetrahydroisoquinolin-7-yl)amino]-4-{[(1,3-thiazol-2-yl)methyl]amino}pyrimidine-5-carboxamide]",4.89
11,"NC(=O)c1cnc(Nc2cnn3c2OCCC3)nc1Nc1cccc2c1CCNC2=O [Example 7-57, 2-[(6,7-dihydro-5H-pyrazolo[5,1-b][1,3]oxazin-3-yl)amino]-4-[(1-oxo-1,2,3,4-tetrahydroisoquinolin-5-yl)amino]pyrimidine-5-carboxamide]",1.31
12,"COc1cc2c(cc1Nc1ncc(C(N)=O)c(Nc3ccccc3Br)n1)CN(C1CC(OC)C1)CC2 (stereo not shown) [Example 9-9, 4-[(2-bromophenyl)amino]-2-{[6-methoxy-2-(3-methoxycyclobutyl)-1,2,3,4-tetrahydroisoquinolin-7-yl]amino}pyrimidine-5-carboxamide]",3.27
13,"CS(=O)(=O)c1ccc(Nc2ncc(C(N)=O)c(Nc3c(F)cccc3CO)n2)cc1 [Example 7-65, 4-{[2-fluoro-6-(hydroxymethyl)phenyl]amino}-2-{[4-(methylsulfonyl)phenyl]amino}py-rimidine-5-carboxamide]",91.5
14,"COc1cc2c(cc1Nc1ncc(C(N)=O)c(NCc3ccccc3O)n1)CN(C)CC2 [Example 26-57, 4-{[(2-hydroxyphenyl)methyl]amino}-2-[(6-methoxy-2-methyl-1,2,3,4-tetrahydroisoquinolin-7-yl)amino]pyrimidine-5-carboxamide]",3.19
15,COc1cc2c(cc1Nc1ncc(C(N)=O)c(Nc3c(F)ccc(C)c3Cl)n1)CN(C)CC2 [Example 4-16],0.1
16,"COc1cc2c(cc1Nc1ncc(C(N)=O)c(Nc3ccccc3-c3cncs3)n1)CN(C)CC2 [Example 14-1, 2-[(6-methoxy-2-methyl-1,2,3,4-tetrahydroisoquinolin-7-yl)amino]-4-{[2-(1,3-thiazol-5-yl)phenyl]amino}pyrimidine-5-carboxamide]",2.75

row,Compound,IC50 [nM]
1,"COc1cc2c(cc1Nc1ncc(C(N)=O)c(Nc3cccc4c3CCN(C)C4=O)n1)CN(C)CC2 [Example 7-35, 2-[(6-methoxy-2-methyl-1,2,3,4-tetrahydroisoquinolin-7-yl)amino]-4-[(2-methyl-1-oxo-1,2,3,4-tetrahydroisoquinolin-5-yl)amino]pyrimidine-5-carboxamide]",1.49
2,"Cn1cc([C@@H]2C[C@H]2C(=O)Nc2ncc(C(N)=O)c(Nc3ccccc3Br)n2)cn1 (racemic) [Example 22-1, 4-((2-bromophenyl)amino)-2-((trans)-2-(1-methyl-1H-pyrazol-4-yl)cyclopropane-1-carboxamido)pyrimidine-5-carboxamide]",370
3,"COc1cc2c(cc1Nc1ncc(C(N)=O)c(N[C@H](C)C3CCCCC3)n1)CN(C)CC2 [Example 26-6, 4-{[(1R)-1-cyclohexylethyl]amino}-2-[(6-methoxy-2-methyl-1,2,3,4-tetrahydroisoquinolin-7-yl)amino]pyrimidine-5-carboxamide]",1.32
4,"COc1cc2c(cc1Nc1ncc(C(N)=O)c(Nc3ccccc3Cc3ccccc3)n1)CN(C)CC2 [Example 13-3, 4-[(2-benzylphenyl)amino]-2-[(6-methoxy-2-methyl-1,2,3,4-tetrahydroisoquinolin-7-yl)amino]pyrimidine-5-carboxamide]",30.6
5,"COCCC(=O)N1CCc2cc(OC)c(Nc3ncc(C(N)=O)c(Nc4ccccc4Br)n3)cc2C1 [Example 12-4, 4-[(2-bromophenyl)amino]-2-{[6-methoxy-2-(3-methoxypropanoyl)-1,2,3,4-tetrahydroisoquinolin-7-yl]amino}pyrimidine-5-carboxamide]",380
6,"COc1cc2c(cc1Nc1ncc(C(N)=O)c(NC3CCC(c4ccccc4)C3)n1)CN(C)CC2 (stereo not shown) [Example 26-12, 2-[(6-methoxy-2-methyl-1,2,3,4-tetrahydroisoquinolin-7-yl)amino]-4-[(3-phenylcyclopentyl)amino]pyrimidine-5-carboxamide]",18.1
7,"COC(=O)C1CC2CC(CC(Nc3nc(Nc4cc5c(cc4OC)CCN(C)C5)ncc3C(N)=O)C2)C1 (stereo not shown) [Example 26-13, methyl 7-({5-carbamoyl-2-[(6-methoxy-2-methyl-1,2,3,4-tetrahydroisoquinolin-7-yl)amino]pyrimidin-4-yl}amino)bicyclo[3.3.1]nonane-3-carboxylate]",0.6
8,"C#C[C@H]1CC[C@@H](Nc2nc(Nc3cc4c(cc3OC)CCN(C)C4)ncc2C(N)=O)CC1 [Example 26-39, 4-[(cis-4-ethynylcyclohexyl)amino]-2-[(6-methoxy-2-methyl-1,2,3,4-tetrahydroisoquinolin-7-yl)amino]pyrimidine-5-carboxamide]",0.34
9,"Cn1cc(Nc2ncc(C(N)=O)c(Nc3cccc4c3CCNC4=O)n2)c(OCC(F)F)n1 [Example 7-55, 2-{[3-(2,2-difluoroethoxy)-1-methyl-1H-pyrazol-4-yl]amino}-4-[(1-oxo-1,2,3,4-tetrahydroisoquinolin-5-yl)amino]pyrimidine-5-carboxamide]",15.3
10,"COc1cc2c(cc1Nc1ncc(C(N)=O)c(Nc3c(C)nn(C)c3C)n1)CN(C)CC2 [Example 7-80, 2-((6-methoxy-2-methyl-1,2,3,4-tetrahydroisoquinolin-7-yl)amino)-4-((1,3,5-trimethyl-1H-pyrazol-4-yl)amino)pyrimidine-5-carboxamide]",0.91
11,"Cc1ccc(Nc2ncc(C(N)=O)c(Nc3cccc4c3CCNC4=O)n2)c(F)c1F [Example 25-39, 2-[(2,3-difluoro-4-methylphenyl)amino]-4-[(1-oxo-1,2,3,4-tetrahydroisoquinolin-5-yl)amino]pyrimidine-5-carboxamide]",19.4
12,"COc1cc(C(=O)N2CCN(C)CC2)ccc1Nc1ncc(C(N)=O)c(Nc2ccccc2C(F)(F)F)n1 [Example 11-1, 2-((2-methoxy-4-(4-methylpiperazine-1-carbonyl)phenyl)amino)-4-((2-(trifluoromethyl)phenyl)amino)pyrimidine-5-carboxamide]",869
13,"COc1cc2c(cc1Nc1ncc(C(N)=O)c(Nc3ccccc3C(=O)NC3CC3)n1)CN(C)CC2 [Example 7-118, 4-((2-(cyclopropylcarbamoyl)phenyl)a-mino)-2-((6-methoxy-2-methyl-1,2,3,4-tetrahydroisoquinolin-7-yl)amino)pyrimidine-5-carboxamide]",2.74
14,"COc1cc2c(cc1Nc1ncc(C(N)=O)c(Nc3cccc(Cl)c3F)n1)CN(C)CC2 [Example 4-12, 4-[(3-chloro-2-fluorophenyl)amino]-2-[(6-methoxy-2-methyl-1,2,3,4-tetrahydroisoquinolin-7-yl)amino]pyrimidine-5-carboxamide]",0.65
15,"COc1nn(C)cc1Nc1ncc(C(N)=O)c(Nc2cccc3c2CCNC3)n1 [Example 7-9, 2-[(3-methoxy-1-methyl-1H-pyrazol-4-yl)amino]-4-[(1,2,3,4-tetrahydroisoquinolin-5-yl)amino]pyrimidine-5-carboxamide]",1.17
